The structures appear in SMILES notation.

In this experiment the test system is K/B×N serum induced arthritis in C57BL/6 mice. The experiment in a line: Sustained K/B×N serum induced arthritis, transfer of monocytes from arthritic mice incubated with MCTR3. The experiment is classed as in vivo, mouse. The protocol:
(C-D) K/B×N serum (100 μL, i.p.) was administered to C57BL/6 mice on day 0, 2 and 9 to induce and prolong inflammatory arthritis and, on day 12, mice were treated i.v. with 2×10^6 monocytes isolated from arthritic mice and incubated with either vehicle (PBS+0.1% EtOH) or 1 nM MCTR3 for 90 min at 37° C. Disease course was monitored daily by assessing C) clinical scores and D) oedema. Results are mean±SEM. and expressed as percent change from day of treatment. n=9 per group from two distinct experiments. (E) On day 22 hind paws were harvested joints were fixed, sectioned, stained using H&E stain and leukocyte infiltration evaluated. Top and centre panels present representative images from each experimental group; bottom panel Quantitation of the scores in each of the group. Results are mean±SEM. n=8 mice per group. Statistical differences were evaluated using Mann-Whitney U test. IFP=intrapatellar fat, M=meniscus, TB=Tibia, PF=Pannus formation, arrows denote leukocyte infiltration. (F-G) Paws were harvested 10 days after treatment and lipid mediator profiles were determined using LC-MS/MS-based lipid mediator profiling and evaluated using PLS-DA. (F) scores plot with highlighted regions denoting the clusters representing cells from each group (G) VIP scores for top 15 mediators. Each dot in the score plot represents a separate mouse.
FIG. 4: Regulation of joint reparative pathways in mice receiving MCTR3-trained monocytes. K/B×N serum (100 μL, i.p.) was administered to C57BL/6 mice on day 0, 2 and 9 to induce and prolong inflammatory arthritis and, on day 12, mice were treated i.v. with 2×10^6 monocytes isolated from arthritic mice and incubated with either vehicle (PBS+0.1% EtOH) or 1 nM MCTR3 for 90 min. (A-C) On day 22 hind paws were harvested, fixed, and stained to evaluate A) proteoglycan content using Safranin-O staining; B) Col 2 and C) Col X expression was evaluated using immunofluorescence. Left panels present representative images from each experimental group, right panels provide a quantitative evaluation of the staining. Results are expressed as percent change vs Monocyte group. n=7-8 mice per group. Statistical differences were evaluated using Wilcoxon signed rank test. (D-I) Hind paws were also collected on day 22 to evaluate the expression of the indicated genes was evaluated using quantitative realtime PCR. Results are from n=5 mice per group. Statistical differences were evaluated using Mann Whitney-U test.
FIG. 5: MCTR3 reprograms the arthritic monocyte-derive macrophage transcriptome. A-B) Arthritis was induced and prolonged in C57BL/6 mice by administering 100 μL K/B×N serum i.p. on day 0, 2 and 9. Mice were treated on day 12 i.v. with 2×10^6 monocytes isolated from arthritic mice and incubated either with vehicle (PBS+0.1% DMSO) or 10 μM RG108, a DNMT inhibitor, for 15 min and then with a vehicle (PBS+0.1% EtOH) or 1 nM MCTR3 for 90 min (37° C.). Disease course was monitored daily by assessing A) clinical scores and B) oedema. Results are mean±SEM and expressed as percent change from day of treatment. n=10 mice per group. Statistical differences were evaluated using Two-way ANOVA. (C-E) K/B×N serum (100 μL, i.p.) was administered to mice on days 0, 2 and 9 to induce and prolong inflammatory arthritis. On day 12, mice were treated i.v. with 2×10^6 monocytes isolated from arthritic mice that were previously incubated with either vehicle (PBS+0.1% EtOH) or 1 nM MCTR3 for 90 min. Cells were isolated from paw joints on day 22, sorted for CD45^+ cells and single cell RNA sequencing was performed. […] Results are from n=4 mice per group. (F-G) Monocytes were isolated from human healthy volunteers, these cells were then incubated with GM-CSF (7 days, 37° C.) then with either Vehicle or MCTR3 (1 nM, 37° C.). Cells were lysed and the phosphoproteome determined using mass spectrometry. […]

Where [1] appears, read: 200 μg nor-NOHA i.p. daily for 10 days from day 12.
Where [2] appears, read: 200 μg nor-NOHA i.p. daily, mice given MCTR3-reprogrammed monocytes.

Consider `N=C(NO)NCC[C@H](N)C(=O)O` [nor-NOHA, N^ω-hydroxy-nor-L-arginine], for which, under setting [1], the “clinical scores in mice given MCTR3-reprogrammed monocytes” value is recorded as “increase” and the “oedema in mice given MCTR3-reprogrammed monocytes” value is reported as “increase”. Further, under setting [2], the “upregulation of Dbl in PKH67+ CD64+ cells” value is “reversed” and the “upregulation of TGF-β1 in PKH67+ CD64+ cells” value is recorded as “reversed”.

The values are drawn from patent US20240269170A1, “Treatment of Inflammatory Conditions or Diseases” (Queen Mary University of London, priority 2021, published 2024).
